Data taken from EP0392423A2, “Substituted 1,4-7-10-tetraazacyclotridecanes, method for their preparation and use of the same for labelling substances with radionuclides” (priority 1989, dated 1990).
Like-named read-outs stand apart in the source and are kept apart here.

Test system: Transferrin
Settings: human, serum
Procedure: Bei diesen Vergleichsversuchen wurde ¹¹¹In sowohl mit den bekannten 12- und 14-Ring-Cyclamen als auch mit dem erfindungsgemäßen Cyclam aus Beispiel 1 komplexiert und anschließend jeweils der ¹¹¹In-Austausch gegen Transferrin - ein bekanntermaßen gutes Komplexierungsmittel - in humanem Serum bei 37°C untersucht.

Substance | ¹¹¹In-Austausch gegen Transferrin (12 h) | ¹¹¹In-Austausch gegen Transferrin (120 h)
Dodecatetraacetate [DOTA] | ca. 0,3% | ca. 4%
12-(p-Nitrobenzyl)-1,4,7,10-tetraacetat-1,4,7,10-tetraazacyclotridecan [Beispiel 1] | < 0,1% | ca. 1%
